Marks after values point to notes of the source that are not given here.
What was measured:
[1] = DPPH radical scavenging assay; conditions: mean ± SD, three experiments
Method: The antiradical activity was determined using the stable 1,1-diphenyl-2-picrylhydrazyl radical (DPPH) following the protocol of Brand-Williams with some modifications reported by De Martino and coworkers.

[2] = FRAP (ferric ion reducing antioxidant power) assay; conditions: mean ± SD, three experiments
AChE = conditions: cited from earlier work

Compound: Cc1c(C)c2c(c(C)c1O)CCC(C)(C(=O)O)O2 (stereo not shown) [Trolox, 6-hydroxy-2,5,7,8-tetramethylchroman-2-carboxylic acid]
- DPPH IC50 (concentration required to reduce the absorbance of DPPH by 50%) [1]: 3.65 ± 0.08 ^c µg/mL
- FRAP [2]: 5.48 ± 0.34 ^a mmol Fe^2+ Equivalents/g Extract

Compound: COc1ccc(-c2cc(=O)c3c(O)c(OC)c(OC)cc3o2)cc1 [salvigenin, Salvigenin]
- activity on AChE (AChE): not active
- effect on the AChE enzyme (AChE): stimulating effect

Reference: PMC10451299, “Phytochemical Constituents and Biological Activity of Wild and Cultivated Rosmarinus officinalis Hydroalcoholic Extracts” (Antioxidants, 2023)
